The record followed here is PubChem BioAssay (NCI).

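Five concentrations, 48 hours, 96-well plates. At the TGI there is no net growth.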

The test system of one experiment is OVCAR-8 ovarian. Kind of experiment: DTP human tumour cell line panel, 48 h.
Broadly, the TGI is the concentration at which net growth stops. Higher therefore signals lower sensitivity of the cells. As to `COc1ccc(C2C(Cl)C(=O)N2NC(=O)c2ccc(NC(C)=O)cc2)cc1` (stereo not drawn), the TGI is > 100 µM.

Turning to `c1ccc([P+](CCNCCNCC[P+](c2ccccc2)(c2ccccc2)c2ccccc2)(c2ccccc2)c2ccccc2)cc1`, the TGI was > 100 µM.

`COc1ccc(-c2c(C#N)c(N)n(C3OC(CO)C(O)C(O)C3O)c(=S)c2C#N)cc1` (stereo not drawn): the TGI was > 100 µM.

Turning to `c1ccc(C[P+]2(c3ccccc3)c3ccccc3-c3ccccc32)cc1`, the TGI is > 100 µM.

`Cc1c(Cl)cccc1NC(=O)C(=O)C1C(=O)CC(C)(C)CC1=O`: the TGI is > 100 µM.

As for `O=C1O[C@@H](c2ccccc2)C[C@@H]1CN1CCOCC1`, the TGI was > 100 µM.

Regarding `COc1ccc2nc(-c3ccc(OCc4ccccc4)cc3)ccc2c1`, the TGI is > 100 µM.

The compound `CCOc1ccc(N/C(=C(/C(Cl)=C(/Cl)NCCN)[N+](=O)[O-])n2nnc3ccccc32)cc1` registered a TGI of 30.4 µM. This lies in the double-digit micromolar range.

With `COC1(C)CC2N(C(=O)c3ccccc3)N=C(c3ccccc3)CC2(C)O1` (stereo not drawn), the concentration for total growth inhibition (TGI) is > 100 µM.

Regarding `O=C1CC(C(O)CO)CC(=O)N1` (stereo not drawn), the TGI is > 100 µM.

Take `Cc1c(Cl)ccc2c(=O)c3cccc(CC(=O)O)c3oc12`: the TGI was > 100 µM.

Take `C/C(=N\NC(=S)NC(C)C)c1nc2ncccc2[nH]1`: the TGI is 52.7 µM.

Regarding `Nc1ccccc1Nc1ccccc1C(=O)[O-].Nc1ccccc1Nc1ccccc1C(=O)[O-].[Cu+2]`, the TGI was > 100 µM.

As to `CCOC(=O)C(OCC1CC=CCC1)Sc1ccccc1` (stereo not drawn), the concentration for total growth inhibition (TGI) is > 100 µM.

Take `CCN(CC)CCn1c2cc3c(cc2c(=O)c2cccnc21)OCCO3`: the TGI is > 10 µM.

In turn, `O=C(NS(=O)(=O)Nc1ccc(Cl)cc1)OCc1ccc(Cl)cc1Cl` returned a TGI of 90.7 µM.

A further experiment has as its system UACC-257 melanoma. Nature of the experiment: DTP human tumour cell line panel, 48 h.
Turning to `Cc1ccc2c(c1)nc(N)n[n+]2[O-]`, the concentration for total growth inhibition (TGI) was > 100 µM.

For `Cc1cn(C2CC(N)C(CN)O2)c(=O)[nH]c1=O` (stereo not drawn), the TGI is > 100 µM.

Consider `Nc1nc2ncc(SCc3ccc(C(=O)NC(CCC(=O)O)C(=O)O)cc3)cc2c(=O)[nH]1` (stereo not drawn), for which the TGI is > 100 µM.

In the case of `CC(C)CC(N)C(=O)OCN1C(=O)C2C3C=CC(C2C1=O)C1C2C(=O)N(COC(=O)C(N)CC(C)C)C(=O)C2C31` (stereo not drawn), the TGI was > 100 µM.

`CC(C)(C)C(=O)C(CC(=O)c1ccccc1)C(=O)C(C)(C)C`: the TGI is > 100 µM.

In the case of `C[N+](C)(C)CC(=O)N/N=c1\cc(C(=O)Nc2ccc(N=O)cc2C#N)oc2cc(O)ccc12`, the TGI is > 100 µM.

`N#CCCN(c1ccc(C=Nc2cccc([N+](=O)[O-])c2)cc1)S(=O)(=O)c1ccccc1`: the TGI was > 100 µM.

In the case of `COc1ccc(/C(=C/n2ccnc2)C(=O)c2ccc(OC)c(OC)c2)cc1`, the total growth inhibition concentration (TGI) is > 100 µM.

In turn, `O=C1CC2(C[C@@H]3CCCCCCCCC[C@@H](C3)C2)N1` (stereo partly drawn) yielded a TGI of 25.1 µM.

Regarding `CC(C)C(Sc1nc(-c2ccccc2)c(-c2ccccc2)[nH]1)C(=O)NNC(=S)Nc1ccccc1` (stereo not drawn), the TGI was found to be 33.5 µM.

Consider `COC1O[C@H]2CCN(C(=O)OCc3ccccc3)[C@H]2[C@H]1OCc1ccccc1` (stereo partly drawn), for which the concentration for total growth inhibition (TGI) was > 100 µM.

`CC12CC(c3ccccc3O1)C(C(=O)Nc1ccc(F)cc1)C(=O)N2` (stereo not drawn): the TGI was > 100 µM.

With `O=c1c2c3ccccc3[nH]c2c2cccc3c2n1CCC3`, the TGI was > 100 µM.

For the compound `COc1ccc(C2C(Cl)C(=O)N2NC(=O)c2ccc(NC(C)=O)cc2)cc1` (stereo not drawn), the TGI is > 100 µM.

As for `c1ccc([P+](CCNCCNCC[P+](c2ccccc2)(c2ccccc2)c2ccccc2)(c2ccccc2)c2ccccc2)cc1`, the concentration for total growth inhibition (TGI) is > 100 µM.

As for `COc1ccc(-c2c(C#N)c(N)n(C3OC(CO)C(O)C(O)C3O)c(=S)c2C#N)cc1` (stereo not drawn), the total growth inhibition concentration (TGI) is > 100 µM.

Take `c1ccc(C[P+]2(c3ccccc3)c3ccccc3-c3ccccc32)cc1`: the TGI is > 100 µM.

For the compound `Cc1c(Cl)cccc1NC(=O)C(=O)C1C(=O)CC(C)(C)CC1=O`, the TGI was > 100 µM.

`O=C1O[C@@H](c2ccccc2)C[C@@H]1CN1CCOCC1`: the TGI is > 100 µM.

Regarding `COc1ccc2nc(-c3ccc(OCc4ccccc4)cc3)ccc2c1`, the TGI was > 100 µM.

As to `CCOc1ccc(N/C(=C(/C(Cl)=C(/Cl)NCCN)[N+](=O)[O-])n2nnc3ccccc32)cc1`, the total growth inhibition concentration (TGI) was > 100 µM.

As to `COC1(C)CC2N(C(=O)c3ccccc3)N=C(c3ccccc3)CC2(C)O1` (stereo not drawn), the TGI is > 100 µM.

On to `O=C1CC(C(O)CO)CC(=O)N1` (stereo not drawn), for which the TGI is > 100 µM.

In the case of `Cc1c(Cl)ccc2c(=O)c3cccc(CC(=O)O)c3oc12`, the TGI was > 100 µM.

`C/C(=N\NC(=S)NC(C)C)c1nc2ncccc2[nH]1`: the total growth inhibition concentration (TGI) is > 100 µM.

For `Nc1ccccc1Nc1ccccc1C(=O)[O-].Nc1ccccc1Nc1ccccc1C(=O)[O-].[Cu+2]`, the TGI is > 100 µM.

As to `CCOC(=O)C(OCC1CC=CCC1)Sc1ccccc1` (stereo not drawn), the TGI is > 100 µM.

In turn, `Cc1c(/C=N\NC(=S)N2CCN(C(=S)N/N=C\c3c(C)n(C)n(-c4ccccc4)c3=O)CC2)c(=O)n(-c2ccccc2)n1C` gave a TGI of 97.3 µM.

For `CCN(CC)CCn1c2cc3c(cc2c(=O)c2cccnc21)OCCO3`, the TGI was > 10 µM.

Regarding `O=C(NS(=O)(=O)Nc1ccc(Cl)cc1)OCc1ccc(Cl)cc1Cl`, the TGI is > 100 µM.

A further experiment relates to PC-3 prostate. Kind of experiment: DTP human tumour cell line panel, 48 h.
Consider `Cc1ccc2c(c1)nc(N)n[n+]2[O-]`, for which the TGI is > 100 µM.

`Cc1cn(C2CC(N)C(CN)O2)c(=O)[nH]c1=O` (stereo not drawn): the TGI is > 100 µM.

Regarding `Nc1nc2ncc(SCc3ccc(C(=O)NC(CCC(=O)O)C(=O)O)cc3)cc2c(=O)[nH]1` (stereo not drawn), the TGI was > 100 µM.

Regarding `CC(C)(C)C(=O)C(CC(=O)c1ccccc1)C(=O)C(C)(C)C`, the TGI is > 100 µM.

Turning to `CC12CC(c3ccccc3O1)C(C(=O)Nc1ccc(F)cc1)C(=O)N2` (stereo not drawn), the total growth inhibition concentration (TGI) was > 100 µM.

As for `O=c1c2c3ccccc3[nH]c2c2cccc3c2n1CCC3`, the TGI was > 100 µM.

In the case of `COc1ccc(-c2c(C#N)c(N)n(C3OC(CO)C(O)C(O)C3O)c(=S)c2C#N)cc1` (stereo not drawn), the TGI was > 100 µM.

In the case of `c1ccc(C[P+]2(c3ccccc3)c3ccccc3-c3ccccc32)cc1`, the TGI was > 100 µM.

As for `CCOc1ccc(N/C(=C(/C(Cl)=C(/Cl)NCCN)[N+](=O)[O-])n2nnc3ccccc32)cc1`, the TGI is > 100 µM.

Regarding `O=C1CC(C(O)CO)CC(=O)N1` (stereo not drawn), the TGI is > 100 µM.

Regarding `Cc1c(Cl)ccc2c(=O)c3cccc(CC(=O)O)c3oc12`, the concentration for total growth inhibition (TGI) was > 100 µM.

Turning to `C/C(=N\NC(=S)NC(C)C)c1nc2ncccc2[nH]1`, the TGI was > 100 µM.

In the case of `Cc1c(/C=N\NC(=S)N2CCN(C(=S)N/N=C\c3c(C)n(C)n(-c4ccccc4)c3=O)CC2)c(=O)n(-c2ccccc2)n1C`, the TGI is > 100 µM.

With `CCN(CC)CCn1c2cc3c(cc2c(=O)c2cccnc21)OCCO3`, the TGI is > 10 µM.

As for `O=C(NS(=O)(=O)Nc1ccc(Cl)cc1)OCc1ccc(Cl)cc1Cl`, the TGI was > 100 µM.

A further experiment deals with LOX IMVI melanoma. Kind of experiment: DTP human tumour cell line panel, 48 h.
For the compound `Cc1ccc2c(c1)nc(N)n[n+]2[O-]`, the TGI is > 100 µM.

`Nc1nc2ncc(SCc3ccc(C(=O)NC(CCC(=O)O)C(=O)O)cc3)cc2c(=O)[nH]1` (stereo not drawn): the TGI was > 100 µM.
